{"source": "patent US6410530B1", "about": "“Substituted 1,2,3,4-tetrahydronaphthalene derivatives” (AstraZeneca AB, priority 1996, dated 2002)"}
{"units": {"melting point": "°C"}}
{"smiles": "CN1CCN(c2cccc3c2C[C@H](NC(=O)c2ccccc2OS(C)(=O)=O)CC3)CC1", "note": "[Example 93, (R)-N-[8-(4-Methylpiperazin-1-yl)-1,2,3,4-tetrahydro-2-naphthyl]-2-methylsulfonyloxybenzamide]", "melting point": "144 to 145"}
{"smiles": "CN1CCN(c2cccc3c2C[C@@H](NC(=O)c2ccc(N4CCOCC4)cc2)CC3)CC1", "note": "[Example 55, (S)-N-[8-(4-Methylpiperazin-1-yl)-1,2,3,4-tetrahydro-2-naphthyl]-4-morpholinobenzamide]", "melting point": "228 to 230"}
{"smiles": "CN1CCN(c2cccc3c2C[C@H](NC(=O)CCCc2ccccc2)CC3)CC1", "note": "[Example 82, (R)-N-[8-(4-Methylpiperazin-1-yl)-1,2,3,4-tetrahydro-2-naphthyl]-4-phenylbutanamide]", "melting point": "137 to 139"}
{"smiles": "Cc1cc(C(=O)N[C@@H]2CCc3cccc(N4CCN(C)CC4)c3C2)ccc1N1CCOCC1", "note": "[Example 61, (R)-N-[8-(4-Methylpiperazin-1-yl)-1,2,3,4-tetrahydro-2-naphthyl]-3-methyl-4-morpholinobenzamide]", "melting point": "172 to 175"}
{"smiles": "CN1CCN(c2cccc3c2C[C@H](NS(C)(=O)=O)CC3)CC1", "melting point": "135 to 137"}
{"smiles": "CCCCOc1ccc(C(=O)N[C@@H]2CCc3cccc(N4CCN(C)CC4)c3C2)cc1", "note": "[Example 70, (R)-N-[8-(4-Methylpiperazin-1-yl)-1,2,3,4-tetrahydro-2-naphthyl]-4-butoxybenzamide]", "melting point": "190 to 191"}
{"smiles": "CN1CCN(c2cccc3c2CC[C@@H](NC(=O)c2ccc(N4CCOCC4)cc2)C3)CC1", "note": "[Example 118, (R)-N-[5-(4-Methylpiperazin-1-yl)-1,2,3,4-tetrahydro-2-naphthyl]-4-morpholinobenzamide]", "melting point": "127 to 128"}
{"smiles": "CN1CCN(c2cccc3c2C[C@H](NC(=O)c2ccc(C(F)(F)F)cc2)CC3)CC1", "note": "[Example 65, (R)-N-[8-(4-Methylpiperazin-1-yl)-1,2,3,4-tetrahydro-2-naphthyl]-4-trifluoromethylbenzamide]", "melting point": "203 to 204"}
{"smiles": "CN1CCN(c2cccc3c2C[C@H](NC(=O)c2ccc(F)cc2)CC3)CC1", "note": "[Example 72, (R)-N-[8-(4-Methylpiperazin-1-yl)-1,2,3,4-tetrahydro-2-naphthyl]-4-fluorobenzamide]", "melting point": "189 to 190"}
{"smiles": "CN1CCN(c2cccc3c2C[C@H](NC(=O)c2ccc(Br)cc2)CC3)CC1", "note": "[Example 73, (R)-N-[8-(4-Methylpiperazin-1-yl)-1,2,3,4-tetrahydro-2-naphthyl]-4-bromobenzamide]", "melting point": "200 to 201"}
